Laboratory results as given in patent US7041837B2, “Heterocyclic compounds having hypolipidemic, hypocholesteremic activities process for their preparation and pharmaceutical compositions containing them and their use in medicine” (Cadilla Healthcare Limited, priority 2001, dated 2006).

Test system: Swiss albino mice
Experiment: Serum triglyceride and total cholesterol lowering activity in Swiss albino mice
Type: in vivo
Conditions: male Swiss albino mice, 3 mg/kg/day orally for 6 days, 1 hour after dosing on 6th day
Experimental: i) Serum Triglyceride and Total Cholesterol Lowering Activity in Swiss Albino Mice:
Male Swiss albino mice (SAM) were bred in Zydus animal house. All these animals were maintained under 12 hour light and dark cycle at 25±1° C. Animals were given standard laboratory chow (NIN, Hyderabad, India) and water ad libitum. SAM of 20–30 g body weight range were used.
The test compounds were administered orally to Swiss albino mice at 0.001 to 50 mg/kg/day dose for 6 days. The compound was administered after suspending it in 0.25% CMC or dissolving it in water, when compound is water-soluble. Control mice were treated with vehicle (0.25% of Carboxymethylcellulose; dose 10 ml/kg).
The blood samples were collected on 0th day and in fed state 1 hour after drug administration on 6th day of the treatment. The blood was collected in non heparinised capillary and the serum was analyzed for triglyceride and total cholesterol (Wieland, O. Methods of Enzymatic analysis. Bergermeyer, H., O., Ed., 1963. 211–214; Trinder, P. Ann. Clin. Biochem. 1969. 6:24–27). Measurement of serum triglyceride and total cholesterol was done using commercial kits (Zydus-Cadila, Pathline, Ahmedabad, India).
Percentage reduction in triglycerides/total cholesterol were calculated according to the formula:
[formula] • OC=Zero day control group value OT=Zero day treated group value • TC=Test day control group TT=Test day treated group

CCOC(Cc1ccc2cc(OCCn3c(C)ccc3-c3ccc(OC)cc3)ccc2c1)C(=O)OC (racemic) [Example 76, (R/S) Methyl-2-ethoxy-3[6-[2-[2-(4-methoxyphenyl)-5-methyl-pyrrol-1-yl]ethoxy]napthalen-2yl]propanoate]
% Triglyceride lowering: 26%
